We go through 1 compound from patent US11011273B2, “Pathway analysis for identification of diagnostic tests” (Nantomics, LLC, priority 2013, dated 2021).

Format in all cases: cell-based
The test system of test [1] is set of cell lines (MV411, TT, AN3CA, K562, PC3, HCT116, ASPC1, MDAMB231, TF1, NCIH23, MIAPACA2, HS766T, CAPAN2, A549, HT29, U937, BXPC3, CAPAN1, SU8686). Description: Treatment effectiveness (GI50) of NANT3456 on a set of cell lines. The following applies: median over all cell lines of FIG. 2; dotted line 220. The text has this: (§1) There are many ways to derive and measure treatment effectiveness data 136 for a particular treatment. For example, effectiveness data can be derived by administering the evaluated treatment to each and every diseased cell line, and measure the effect of the evaluated treatment on each diseased cell line. The measurement can be based on an amount of drug needed to obtain a threshold inhibition effect of the disease in the cell line (e.g., the amount of drug needed to reduce the activities of the disease by half).
(§2) FIG. 2 illustrates a graph 200 showing a graphical representation of an example set of treatment effectiveness data 136 that represents how effective NANT3456 is on a set of cell lines. NANT3456 is described in more detail in WO/2014/071378, published May 8, 2014, which is incorporated by reference herein. In some embodiments, the data points on FIG. 2 represent distinct cell lines from different tissues, distinct cell lines from the same tissue, or any combination thereof. Further, the cell lines may be derived from a single host, multiple distinct hosts, or any combination. In this example, NANT3456 is known to be capable of treating diseases associated with the set of cell lines (e.g., cell lines MV411, TT, AN3CA, K562, PC3, HCT116, ASPC1, MDAMB231, TF1, NCIH23, MIAPACA2, HS766T, CAPAN2, A549, HT29, U937, BXPC3, CAPAN1, and SU8686). […]

The subject of test [2] is cell line MV411. The test is described as follows: Treatment effectiveness (GI50) on cell line MV411. The following applies: Homo sapiens, MV4-11; data point 225, FIG. 2; read-out: sensitivity class from GI50 treatment effectiveness value.
Text: as §1, §2

Test [3] concerns cell line TT. Description: Treatment effectiveness (GI50) on cell line TT. Particulars: data point 230, FIG. 2; read-out: sensitivity class from GI50 treatment effectiveness value.
Text: as §1, §2

Test [4] deals with cell line PC3. The test is described as follows: Treatment effectiveness (GI50) on cell line PC3. Particulars: data point 235, FIG. 2; read-out: sensitivity class from GI50 treatment effectiveness value.
Text: as §1, §2

For test [5], the system named is NCIH23. Description: Treatment effectiveness (GI50) on cell line NCIH23. The following applies: Homo sapiens, NCI-H23; data point 240, FIG. 2; read-out: sensitivity class from GI50 treatment effectiveness value.
Text: as §1, §2

Test [6] deals with cell line HT29. The test is described as follows: Treatment effectiveness (GI50) on cell line HT29. The following applies: Homo sapiens, HT-29; data point 245, FIG. 2; read-out: sensitivity class from GI50 treatment effectiveness value.
Text: as §1, §2

Test [7] deals with cell line CAPAN1. The test is described as follows: Treatment effectiveness (GI50) on cell line CAPAN1. Particulars: Homo sapiens, CAPAN-1; data point 250, FIG. 2; read-out: sensitivity class from GI50 treatment effectiveness value.
Text: as §1, §2

As a reminder, the GI50 is the concentration giving 50% growth inhibition. For the compound `C/C=C/c1cc(Nc2cc(N3CCN(C)CC3)nc(Oc3cc(F)c4[nH]c(C)cc4c3F)n2)n[nH]1` [NANT3456], the “threshold effectiveness value (median value of all treatment effectiveness values, GI50)” value in test [1] was 1.7 log10 units of nanomolar drug. The GI50 in test [2] is less than 50.1 nM; in test [3], less than 50.1 nM; in test [4], less than 50.1 nM; in test [5], more than 50.1 nM; in test [7] it was more than 50.1 nM. Further, in test [6], the GI50 sensitivity class is more than 50.1 nM.
